Laboratory results taken from ChEMBL document CHEMBL1201862, “PubChem BioAssay data set” (2004).
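1) Cells in 96-well plates. 2) Compound, 48 h, 5 concentrations. 3) Linear interpolation between surrounding doses. 4) Unreached endpoint = highest concentration. At the GI50, growth is halved.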 The source made the active and inactive calls. Cut-off read from the data, not from the text of the source: active = GI50 up to about 1.1 µM and inactive = higher.

Tests used:
Experiment in all cases: inhibition of tumour cell growth, NCI panel, 48 h
[1] = system: NCI-H226
[2] = system: SNB-75
[3] = system: PC-3
[4] = system: T47D
[5] = system: TK-10
[6] = system: K562
[7] = system: EKVX
[8] = system: KM12
[9] = system: SK-MEL-28
[10] = system: BT-549
[11] = system: 786-0
[12] = system: MOLT-4
[13] = system: UACC-62
[14] = system: SR
[15] = system: HCC 2998
[16] = system: MDA-N
[17] = system: MCF7
[18] = system: LOX IMVI
[19] = system: NCI/ADR-RES
[20] = system: COLO 205
[21] = system: UACC-257
[22] = system: OVCAR-5
[23] = system: OVCAR-3
[24] = system: HCT-116
[25] = system: OVCAR-4
[26] = system: NCI-H460
[27] = system: A549
[28] = system: UO-31
[29] = system: SF-268
[30] = system: M14
[31] = system: SN12C
[32] = system: CAKI-1
[33] = system: MDA-MB-231
[34] = system: SF-295
[35] = system: DU-145
[36] = system: Hs-578T
[37] = system: HL-60
[38] = system: SK-MEL-2
[39] = system: HOP-62
[40] = system: HT-29
[41] = system: U-251
[42] = system: CCRF-CEM
[43] = system: SF-539
[44] = system: SNB-19
[45] = system: RXF 393
[46] = system: NCI-H23
[47] = system: SW-620
[48] = system: MDA-MB-435
[49] = system: ACHN
[50] = system: NCI-H522
[51] = system: IGROV-1
[52] = system: HCT-15
[53] = system: HOP-92
[54] = system: A498
[55] = system: Malme-3M
[56] = system: RPMI-8226
[57] = system: OVCAR-8
[58] = system: SK-OV-3
[59] = system: SK-MEL-5

SMILES: O=C(O)CCSC(CC1(c2ccc(Cl)cc2)NC(=O)CCS1)c1ccccc1 (configuration not stated)
- GI50 [1]: 17.3 µM (inactive)
- GI50 [2]: 17.1 µM (inactive)
- GI50 [3]: 18.7 µM (inactive)
- GI50 [4]: 16.1 µM (inactive)
- GI50 [5]: 18.4 µM (inactive)
- GI50 [6]: 10.8 µM (inactive)
- GI50 [7]: 21.5 µM (inactive)
- GI50 [8]: 3.56 µM (inactive)
- GI50 [9]: 17.9 µM (inactive)
- GI50 [10]: 17 µM (inactive)
- GI50 [11]: 6.7 µM (inactive)
- GI50 [12]: 12.5 µM (inactive)
- GI50 [13]: 19.9 µM (inactive)
- GI50 [14]: 8.32 µM (inactive)
- GI50 [15]: 10 µM (inactive)
- GI50 [16]: 12.6 µM (inactive)
- GI50 [17]: 3.87 µM (inactive)
- GI50 [18]: 14.6 µM (inactive)
- GI50 [19]: 20.8 µM (inactive)
- GI50 [20]: 22.3 µM (inactive)
- GI50 [21]: 21.9 µM (inactive)
- GI50 [22]: 17.9 µM (inactive)
- GI50 [23]: 20.2 µM (inactive)
- GI50 [24]: 4.71 µM (inactive)
- GI50 [25]: 15 µM (inactive)
- GI50 [26]: 16.8 µM (inactive)
- GI50 [27]: 24.2 µM (inactive)
- GI50 [28]: 20.7 µM (inactive)
- GI50 [29]: 18 µM (inactive)
- GI50 [30]: 19.4 µM (inactive)
- GI50 [31]: 18.3 µM (inactive)
- GI50 [32]: 16.9 µM (inactive)
- GI50 [33]: 22.1 µM (inactive)
- GI50 [34]: 21.2 µM (inactive)
- GI50 [35]: > 39.4 µM (inactive)
- GI50 [36]: 12.9 µM (inactive)
- GI50 [37]: 3.44 µM (inactive)
- GI50 [38]: 18.7 µM (inactive)
- GI50 [39]: 21.2 µM (inactive)
- GI50 [40]: 17.3 µM (inactive)
- GI50 [41]: 10.4 µM (inactive)
- GI50 [42]: 1.9 µM (inactive)
- GI50 [43]: 7.98 µM (inactive)
- GI50 [44]: 23.8 µM (inactive)
- GI50 [45]: 21.7 µM (inactive)
- GI50 [46]: 20.9 µM (inactive)
- GI50 [47]: 5.12 µM (inactive)
- GI50 [48]: 14.3 µM (inactive)
- GI50 [49]: 25.5 µM (inactive)
- GI50 [50]: 15.1 µM (inactive)
- GI50 [51]: 12.1 µM (inactive)
- GI50 [52]: 8.09 µM
- GI50 [53]: 33.8 µM (inactive)
- GI50 [54]: 21.5 µM (inactive)
- GI50 [55]: 22.9 µM (inactive)
- GI50 [56]: 3.56 µM (inactive)
- GI50 [57]: 19.9 µM (inactive)
- GI50 [58]: 20.5 µM (inactive)
- GI50 [59]: 13 µM (inactive)

SMILES: Cc1sc(/N=C/c2c[nH]c3ccccc23)c(C#N)c1C
- GI50 [1]: 30.5 µM (inactive)
- GI50 [2]: 37.1 µM (inactive)
- GI50 [3]: 45.7 µM (inactive)
- GI50 [4]: 18.6 µM (inactive)
- GI50 [5]: 20 µM (inactive)
- GI50 [6]: 16.3 µM (inactive)
- GI50 [7]: 67.9 µM (inactive)
- GI50 [8]: 13.7 µM (inactive)
- GI50 [9]: > 100 µM (inactive)
- GI50 [10]: 42.1 µM (inactive)
- GI50 [11]: 27.4 µM (inactive)
- GI50 [12]: 23 µM (inactive)
- GI50 [13]: 20.7 µM (inactive)
- GI50 [14]: 18.2 µM (inactive)
- GI50 [15]: 14.9 µM (inactive)
- GI50 [16]: 53.7 µM (inactive)
- GI50 [17]: 27.7 µM (inactive)
- GI50 [18]: 34.6 µM (inactive)
- GI50 [19]: 74.6 µM (inactive)
- GI50 [20]: > 100 µM (inactive)
- GI50 [21]: 44.6 µM (inactive)
- GI50 [22]: > 100 µM (inactive)
- GI50 [23]: 11.2 µM (inactive)
- GI50 [24]: 23.4 µM (inactive)
- GI50 [25]: 35.2 µM (inactive)
- GI50 [26]: 33.1 µM (inactive)
- GI50 [27]: 65 µM (inactive)
- GI50 [28]: 48 µM (inactive)
- GI50 [29]: 85.3 µM (inactive)
- GI50 [30]: 22 µM (inactive)
- GI50 [31]: 74.3 µM (inactive)
- GI50 [32]: 56.2 µM (inactive)
- GI50 [33]: 36.4 µM (inactive)
- GI50 [34]: 28.3 µM (inactive)
- GI50 [35]: 55.6 µM (inactive)
- GI50 [36]: 58.1 µM (inactive)
- GI50 [37]: 21.2 µM (inactive)
- GI50 [38]: 30.5 µM (inactive)
- GI50 [39]: 34.2 µM (inactive)
- GI50 [40]: 6.89 µM (inactive)
- GI50 [41]: 21.5 µM (inactive)
- GI50 [42]: 15.3 µM (inactive)
- GI50 [43]: 40.4 µM (inactive)
- GI50 [44]: 61.2 µM (inactive)
- GI50 [45]: 22.3 µM (inactive)
- GI50 [46]: 54.1 µM (inactive)
- GI50 [47]: 39.7 µM (inactive)
- GI50 [48]: 32.3 µM (inactive)
- GI50 [49]: 29.6 µM (inactive)
- GI50 [50]: 27.9 µM (inactive)
- GI50 [51]: 21.7 µM (inactive)
- GI50 [52]: 24 µM
- GI50 [53]: 45.7 µM (inactive)
- GI50 [54]: 28.7 µM (inactive)
- GI50 [55]: 25.9 µM (inactive)
- GI50 [56]: 19.7 µM (inactive)
- GI50 [57]: 45.5 µM (inactive)
- GI50 [58]: 88.7 µM (inactive)
- GI50 [59]: 18.4 µM (inactive)

SMILES: CSc1cc(-c2ccccn2)nc(-c2ccccn2)c1
- GI50 [1]: 0.0395 µM (active)
- GI50 [2]: 0.689 µM (active)
- GI50 [3]: 0.092 µM (active)
- GI50 [4]: 0.346 µM (active)
- GI50 [5]: 0.0401 µM (active)
- GI50 [6]: 0.248 µM (active)
- GI50 [7]: 0.0906 µM (active)
- GI50 [8]: 0.124 µM (active)
- GI50 [9]: 0.0736 µM (active)
- GI50 [10]: 0.0536 µM (active)
- GI50 [11]: 0.0546 µM (active)
- GI50 [12]: 0.0421 µM (active)
- GI50 [13]: 0.176 µM (active)
- GI50 [14]: 0.0405 µM (active)
- GI50 [15]: 0.0518 µM (active)
- GI50 [16]: 0.452 µM (active)
- GI50 [17]: 0.324 µM (active)
- GI50 [18]: 0.043 µM (active)
- GI50 [19]: 0.0944 µM (active)
- GI50 [20]: 0.125 µM (active)
- GI50 [21]: 0.481 µM (active)
- GI50 [22]: 0.179 µM (active)
- GI50 [23]: 0.0279 µM (active)
- GI50 [24]: 0.0682 µM (active)
- GI50 [25]: 0.0828 µM (active)
- GI50 [26]: 0.0541 µM (active)
- GI50 [27]: 0.137 µM (active)
- GI50 [28]: 0.0607 µM (active)
- GI50 [29]: 0.0559 µM (active)
- GI50 [30]: 0.0695 µM (active)
- GI50 [31]: 0.0991 µM (active)
- GI50 [32]: 0.065 µM (active)
- GI50 [33]: 0.494 µM (active)
- GI50 [34]: 0.0566 µM (active)
- GI50 [35]: 0.097 µM (active)
- GI50 [36]: 3.1 µM (inactive)
- GI50 [37]: 0.0492 µM (active)
- GI50 [38]: 0.552 µM (active)
- GI50 [39]: 0.0329 µM (active)
- GI50 [40]: 0.149 µM (active)
- GI50 [41]: 0.0766 µM (active)
- GI50 [42]: 0.0527 µM (active)
- GI50 [43]: 0.171 µM (active)
- GI50 [44]: 0.564 µM (active)
- GI50 [45]: 0.255 µM (active)
- GI50 [46]: 0.398 µM (active)
- GI50 [47]: 0.126 µM (active)
- GI50 [48]: 0.327 µM (active)
- GI50 [49]: 0.0334 µM (active)
- GI50 [50]: 0.385 µM (active)
- GI50 [51]: 0.102 µM (active)
- GI50 [52]: 0.0324 µM
- GI50 [53]: 0.0959 µM (active)
- GI50 [54]: 0.769 µM (active)
- GI50 [55]: 0.102 µM (active)
- GI50 [56]: 0.383 µM (active)
- GI50 [57]: 0.0845 µM (active)
- GI50 [58]: 0.255 µM (active)
- GI50 [59]: 0.126 µM (active)
